Patent EP0311632B1, “SURFACE ACTIVE LACTAMS” (priority 1986, dated 1988)
Like-named read-outs stand apart in the source and are kept apart here. Marks after values point to notes of the source that are not given here.

How the values were obtained:
[1] = Titration of 10% dispersions with HCl to a clear solution (protonation); type: physicochemical; details: clear solution after HCl titration
Description: Ten percent dispersions of the C₈ and C₁₀ pyrrolidones were titrated to a clear solution using HCl.
To obtain a rough figure for the protonation equilibrium constant, the equilibrium [octyl pyrrolidone] was taken at 5 x 10⁻³m.

[2] = Cloud point of 10% aqueous solutions; type: physicochemical; details: 10% aqueous solution
Description: The higher the cloud point, the more soluble, i.e. hydrated, the surfactant.

[3] = Viscosity (Brookfield Viscometer, LVT Model); type: physicochemical
Procedure: The viscosities in cps of the following surfactants at various concentration in distilled water were measured at about 25°C. using a Brookfield Viscometer (LVT Model).
The above viscosity of alkyl pyrrolidones and their aqueous solutions were obtained usinq a #2 spindle at a speed of 30 rpm, and a #2 spindle at a speed of 60 rpm respectively.

[4] = pH of product, 10% in 50/50 isopropyl alcohol-water; type: physicochemical
Description: Into a stainless steel autoclave was introduced n-octylamine (2342 g) and butyrolactone (1704 g) in a mole ratio of about 1:1.1.

[5] = Surface tension of aqueous solutions (Fisher Surface Tensiomat, ring tensiometer); type: physicochemical; details: 25°C.
Procedure: Surface tension measurements in triplicate were made for each of the N-alkylpyrrolidone species listed below in Table 1, using a Fisher Surface Tensiomat (Model #21, Der Nouy Ring Tensionometer). Each experiment was carried out as follows.
Distilled water solutions at concentrations noted in Table 1 were prepared for each of the following surfactants in 100 ml glass flasks. The solutions were stirred for about 15 minutes until homogeneous solutions were obtained. The surface tensions of these solutions were then measured.

[6] = Surface activity parameters calculated from surface tension measurements (Gibbs adsorption equation); type: physicochemical; details: for am: area of the molecule at the interface; for CMC: critical micelle concentration, calculated from surface tension data; for pC-20: negative logarithm of surfactant concentration required to lower surface tension by 20 dynes/cm
Procedure: The critical micelle concentration (CMC), the surface concentration at the liquid-air interface ( ? ), the area of the test molecule at the interface (am) and the effectiveness of adsorption at the interface (pC-20) were determined on the above surface tension data reported in Example XXI, Table 1.
More specifically, the CMC of the N-(n alkyl) pyrrolidones tested show a minimum (4.7 x 10⁻⁵) at the C₁₂ chain length. Using the empirical equation for n-lauryl (C₁₂) alcohol ethoxylate, log CCMC (= A)^1 (+ B)^1 n [formula] where A¹ = 4.4, B¹ = 0.046, and n = number of ethylene oxide at 23°C., the pyrrolidone ring would be expected to behave as 2 ethylene oxide units. […] The hydrophilic-lipophilic balance (HLB) of N-n-dodecyl pyrrolidone, based on the assumption that the pyrrolidone ring simulates 2-6 ethylene oxide units is 6.5 - 11 using the equation % ethylene oxide/5 - HLB.
The surface concentration ? , in moles per cm indicates the maximum surface concentration of surfactant, i.e. at equilibrium above the CMC, and is obtained by an estimation of a constant d γ /dc* from the surface tension vs. concentration. […] The mono disperse nature of the hydrophobe and hydrophile is believed to contribute to high surface concentrations by maximizing enthropy of packing. * d γ/dc = the change in surface tension with respect to the change in surfactant concentration.

[7] = Solubility of N-alkyl pyrrolidones, 10% by weight in various liquids; type: physicochemical; design: key to 10% PRODUCT SOLUBILITY: I: insoluble; PS: partially soluble (cloudy translucent); S: soluble, clear; *: Soluble with slight haze; **: Very slight precipitation; details: for 10% PRODUCT SOLUBILITY: 25°C ± 1°C; for solubility in water: room temperature, 10% concentration, in words
Procedure: Separate 10% by weight solutions of N-alkyl-2-pyrrolidone in the following liquids were made up in 50 ml glass beakers and the solubilities at about 25°C. were noted and reported in following Table 9.

[8] = Density, heat of vaporization and solubility parameter; type: physicochemical
[9] = value starred: literature value; cited from earlier work
[10] = 100%, about 25°C., #2 spindle 30 rpm
[11] = product as such, stated in description and preparation examples
[12] = 0.001% solution in distilled water
[13] = 0.01% solution in distilled water
[14] = 0.1% solution in distilled water
[15] = 2% in distilled water, about 25°C., #2 spindle 60 rpm
[16] = 4% in distilled water, about 25°C., #2 spindle 60 rpm
[17] = 6% in distilled water, about 25°C., #2 spindle 60 rpm
[18] = 8% in distilled water, about 25°C., #2 spindle 60 rpm
[19] = 10% in distilled water, about 25°C., #2 spindle 60 rpm
[20] = 0.0001% solution in distilled water

| Structure (SMILES) | Cloud Point [2] | VISCOSITY [3, 10] [CPS] | VISCOSITY [3, 11] [cps] | pH [4] | Surface Tension of Aqueous Solutions [5, 12] [dynes/cm] | Surface Tension of Aqueous Solutions [5, 13] [dynes/cm] | Surface Tension of Aqueous Solutions [5, 14] [dynes/cm] | am [6] | CMC [6] [µM] | pC-20 [6] | 10% PRODUCT SOLUBILITY ([7]; Acetone) | 10% PRODUCT SOLUBILITY ([7]; Ethanol) | 10% PRODUCT SOLUBILITY ([7]; Heptane) | 10% PRODUCT SOLUBILITY ([7]; Paraffin Oil) | 10% PRODUCT SOLUBILITY ([7]; Perchloroethylene) | 10% PRODUCT SOLUBILITY ([7]; Stoddard Solvent) | 10% PRODUCT SOLUBILITY ([7]; Water) | 10% PRODUCT SOLUBILITY ([7]; Xylene) | solubility in water [7] | also measured |
| --- | --- | --- | --- | --- | --- | --- | --- | --- | --- | --- | --- | --- | --- | --- | --- | --- | --- | --- | --- | --- |
| CCCCCCCCCCN1CCCC1=O [N-decyl-2-pyrrolidone] | 19 °C | 12.0 | 12 | 5.4 | 51.0 | 27.8 | 27.5 | 36.1 (Å)^2 | 440 | 4.51 | S | S | S | S | S | S | PS* | S | slightly soluble | Solution pH [1]: <0.1; Surface Tension of Aqueous Solutions ([5]; 1.0% solution in distilled water): 27.6 dynes/cm |
| O=C1CCCN1C1CCCCC1 [N-cyclohexyl pyrrolidone, reference compound] | 55 °C |  |  |  |  |  |  |  |  |  |  |  |  |  |  |  |  |  |  |  |
| CCCCCCCCCCCCCCN1CCCC1=O [N-tetradecyl-2-pyrrolidone] | 33 °C | 20.0 | 2 | 5.9 | 30.4 | 26.5 | 26.4 | 53.6 (Å)^2 | 57 | 6.25 | S | S | S | S | S | S | S* | S | completely soluble | Cloud Point ([2]; listed as tetradecyl): 33 °C; Cloud Point ([2]; listed as tetradecyl pyrrolidone): 33-34 °C; VISCOSITY [3, 15]: 24.5 CPS; VISCOSITY [3, 16]: 66.0 CPS; VISCOSITY [3, 17]: 96.0 CPS; VISCOSITY [3, 18]: 100.0 CPS; VISCOSITY [3, 19]: 145.0 CPS; Heat of Vaporizn. [8]: 19.7 k cal/mole; Solubility Parameter (δ) [8]: 7.8; Surface Tension of Aqueous Solutions [5, 20]: 47.5 dynes/cm; Γm ([6]; surface concentration at the liquid-air interface): 3.1 10^-10 mol/cm² |
| CCCCCCCCCCCCCCCCN1CCCC1=O [hexadecyl, N-hexadecyl-2-pyrrolidone] | insoluble |  |  |  |  |  |  |  |  |  |  |  |  |  |  |  |  |  |  |  |
| CCCCCCCCN1CCCC1=O [N-octyl-2-pyrrolidone] | < 0 °C | 8.0 | 8 | 6.5 | 68.4 | 54.25 | 30.4 | 39.5 (Å)^2 |  | 3.20 | S | S | S | S | S | S** | I | S | insoluble | Solution pH [1]: 0.22 |
| CCCCCCCCCCCCN1CCCC1=O [N-dodecyl-2-pyrrolidone] | 15-19 °C | 17.0 | 17 | 7.3 | 29.9 | 27.6 | 26.7 | 36.9 (Å)^2 | 47 | 5.27 | S | S | S | PS | S | PS | S* | S | completely soluble | Cloud Point ([2]; listed as dodecyl): 15-19 °C; Cloud Point ([2]; listed as dodecyl pyrrolidone): 31-32 °C; VISCOSITY [3, 15]: 6.5 CPS; VISCOSITY [3, 16]: 7.5 CPS; VISCOSITY [3, 17]: 12.5 CPS; VISCOSITY [3, 18]: 16.0 CPS; VISCOSITY [3, 19]: 20.0 CPS; Surface Tension of Aqueous Solutions [5, 20]: 55.4 dynes/cm |
| CCCCCCCCCCCC[N+](C)(C)[O-] [lauryl dimethyl amine oxide, reference compound] |  |  |  |  |  |  |  | 59.3 (Å)^2 |  | 5.23 |  |  |  |  |  |  |  |  |  | CMC [9]: 2.1 x 10^-3* ml^-1 |
